We go through two molecules from patent US12415802B1, “Dipyridine benzothiophene derivative compound” (KING FAISAL UNIVERSITY, priority 2025, dated 2025).

The nature of this experiment: DPPH radical scavenging antioxidant test. It counts as biochemical. Conditions: 517 nm; for Inhibition (radical scavenging inhibition): 0.2 mL DPPH (0.75 mM), compound (3p M) in ethanol, 30 minutes in the dark; for antioxidant activity (in words): DPPH in vitro test, vitamin C as positive control. An excerpt:
A dipyridine benzo[b]thiophene derivative compound comprises 4-(1-benzothiophen-2-yl)-6-ethoxy-2,3′-bipyridine-5-carbonitrile. […] As described herein, the antioxidant activity of 4-(1-benzothiophen-2-yl)-6-ethoxy-2,3′-bipyridine-5-carbonitrile was investigated by 2,2-diphenyl-1-picrylhydrazyl (DPPH) in vitro tests that employ vitamin C as the positive control.
The antioxidant properties of the 4-(1-benzothiophen-2-yl)-6-ethoxy-2,3′-bipyridine-5-carbonitrile compound were studied by adding 0.2 mL DPPH (0.75 mM)) to 4-(1-benzothiophen-2-yl)-6-ethoxy-2,3′-bipyridine-5-carbonitrile (3p M) (4) in ethanol. After 30 minutes of incubation in the dark, the absorbance was read against a blank at 517 nm. Ascorbic acid (Vitamin C) was used as a standard antioxidant (positive control). A blank sample was prepared by 0.2 mL of DPPH in 3 mL ethanol. A negative control sample was run using ethanol instead of the sample. The radical scavenging inhibition was calculated using the following equation: […]
The antioxidant activity for the synthesized compound is listed in Table 1, using Vitamin C as a reference.
(In general: DPPH is a stable violet radical that fades when it is reduced.)

For `CCOc1nc(-c2cccnc2)cc(-c2cc3ccccc3s2)c1C#N` [Product 4, 4-(1-benzothiophen-2-yl)-6-ethoxy-2,3′-bipyridine-5-carbonitrile], the “Inhibition (radical scavenging inhibition)” value worked out at 48% and the “antioxidant activity (in words)” value was “high antioxidant activities”. Besides, for the setting “listed as III”, the “antioxidant activity (in words)” value is “high potential as an antioxidant compared to vitamin C”.
On to `O=C1O[C@H]([C@@H](O)CO)C(O)=C1O` [Vit C, Ascorbic acid, reference compound], for which the “Inhibition (radical scavenging inhibition)” value is 74%.
